The target in one experiment is T1, human A1-receptor (Homo sapiens, UniProt P30542).
T1 sequence (P30542 1-326): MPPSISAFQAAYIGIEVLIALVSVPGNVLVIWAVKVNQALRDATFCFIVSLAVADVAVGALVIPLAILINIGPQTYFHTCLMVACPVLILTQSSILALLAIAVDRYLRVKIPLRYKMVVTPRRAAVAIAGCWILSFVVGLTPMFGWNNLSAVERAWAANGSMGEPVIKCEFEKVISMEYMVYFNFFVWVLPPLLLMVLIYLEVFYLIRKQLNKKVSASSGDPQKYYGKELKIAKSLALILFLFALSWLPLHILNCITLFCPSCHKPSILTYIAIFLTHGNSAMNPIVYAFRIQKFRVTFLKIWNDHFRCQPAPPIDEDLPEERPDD
The experiment can be described thus: Live cell confocal imaging of ligand binding to CHO-A1 cells. The class given is cell-based. More on the design: expressed in transfected cells; host or cells: CHO (CHO-K1) cells: CHO-A1 and CHO-A1fos; cell membranes in A1, whole or live cells in the other assays. Here is the method:
Images were acquired using a Zeiss LSM510 confocal microscope using CHO-A1 cells grown to 50% confluency on 8-well Labtek™ plates in Dulbecco's
Modification of Eagle's Medium:Ham's F12 containing 5% foetal calf serum and 2 mM glutamine. Cells were washed twice with HEPES-buffered saline prior to incubation at 22° C. with compounds as indicated.
Functional studies were performed in CHO-K1 cells expressing both the human A1-AR and a c-fos-pGL3 reporter vector (CHO-A1fos cells). […] Luciferase expression was quantified using a Luclite® kit according to manufacturer's instructions. Live cell confocal imaging was carried out on CHO-A1 cells or CHO cells expressing the A1-AR tagged on the C-terminus with a green fluorescent protein (CHO-A1Tpz).

The target in experiment [1] is human adenosine A1-receptor (Homo sapiens, UniProt P30542). Kind of experiment: biochemical.
Experiment [2] concerns the target T2, human adenosine A1 receptor (A1-AR) (Homo sapiens, UniProt P30542).
T2 construct: expressed in transfected cells; host or cells: CHO (CHO-K1) cells: CHO-A1 and CHO-A1fos; cell membranes in A1, whole or live cells in the other assays
T2 sequence (P30542 1-326): T1 sequence (P30542 1-326)
Kind of experiment: Fluorescence correlation spectroscopy (FCS) of ligand binding on CHO-A1 cells. An excerpt:
FCS is a non-invasive technique which measures fluctuations in fluorescence intensity in a confocal volume of <10^−15 l. Statistical analysis of these fluctuations gives information about the speed of diffusion (i.e. mass) and concentration of the fluorescent molecules present. Thus free ligand (fast diffusing) and bound ligand (slow diffusing) can be quantified simultaneously on a single cell. We have used FCS to measure binding of the fluorescent ligand, xanthine amine cogener-BODIPY®630/650 (XAC-BY630) to the human adenosine A1 receptor (A1-AR).
CHO cells expressing either the human A1-AR or an A1-AR-Topaz fusion were cultured on glass-bottomed 8-well plates and prepared for live cell measurement FCS measurements were made using a Zeiss Confocor 2, fitted with an Axiocam CCD camera for x-y positioning. Cells were incubated with ligands at 22° C. for the times indicated and the confocal volume was positioned on the upper membrane. Data were collected for 2×30 s, following a 15 s pre-bleach and analysed using a multi-parameter equation using Zeiss AIM software.

Molecules are shown by their SMILES.

Regarding `CCCn1c(=O)c2[nH]c(C3CCCC3)nc2n(CCC)c1=O` [DPCPX, 8-cyclopentyl-1,3-dipropyl xanthine, reference compound], at human A1-receptor (30 min pre-incubation with DPCPX 10^−8-10^−6M, XAC-BY630 30 min, 50 nM), the “Inhibition of membrane binding of XAC-BY630 (confocal imaging)” value is given as “concentration-dependent inhibition”.
Turning to `CCCn1c(=O)c2[nH]c(-c3ccc(OCC(=O)NCCNC(=O)CCCCCNC(=O)COc4ccc(/C=C/C5=[N+]6C(=Cc7ccc(-c8cccs8)n7[B-]6(F)F)C=C5)cc4)cc3)nc2n(CCC)c1=O` [XAC-BY630, xanthine amine cogener-BODIPY®630/650], the Kb in experiment [1] was 126 nM. Besides, the “Binding to membrane-localised A1-ARs (confocal imaging)” value on human A1-receptor (CHO-A1 cells, 22° C.) is “time- and concentration-dependent manner”. For the same compound, on human A1-receptor (XAC-BY630 25-250 nM, CHO-A1 cells), the “Time after which binding was detected (confocal imaging)” value amounted to 5 min. Besides, the “Amount of τD1 component after DPCPX preincubation” value in experiment [2] (15 nM XAC-BY630 for 30 min, DPCPX 1 μM, 30 min preincubation, n=4) was found to be 13.6±5.4 receptors/μm^2. For the same compound, the “Amount of τD1 component” value in experiment [2] (15 nM XAC-BY630 for 30 min, no DPCPX, n=8) was 51.8±14.9 receptors/μm^2. Besides, the “Diffusion time τD of free ligand in buffer (FCS)” value in experiment [2] (in buffer, single component, n=10) amounted to 60±2 μs. In experiment [2] (upper membrane of CHO-A1 cells, XAC-BY630 1-40 nM, 10-60 min, 61/71 cells), the “Diffusion time τD2, very slow diffusing component (non-specific binding)” value was 345 ± 41 ms. In experiment [2] (upper membrane of CHO-A1 cells, XAC-BY630 1-40 nM, 10-60 min, 69/71 cells), the “Diffusion time τD1, first slow-diffusing component (receptor-bound ligand)” value came out at 17.4 ± 1.1 ms.

The record behind these values is patent US20060211045A1, “Fluorescently tagged ligands” (priority 2003, published 2006).
